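Exposure lasted 48 hours, with cells grown in 96-well plates and compounds tested at five concentrations. Here, GI50 denotes the concentration required for 50% inhibition of growth. TGI denotes the concentration required for complete inhibition of growth.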
What was measured:
Test in all cases: growth of human tumour cells (NCI), 48 h
[1] = tested on: HL-60(TB) leukemia
[2] = tested on: BT-549 breast
[3] = tested on: MCF7 breast
[4] = tested on: SK-MEL-2 melanoma
[5] = tested on: NCI-H226 lung
[6] = tested on: HCT-15 colon
[7] = tested on: NCI-H23 lung
[8] = tested on: 786-0 renal
[9] = tested on: K-562 leukemia
[10] = tested on: SK-MEL-28 melanoma
[11] = tested on: OVCAR-3 ovarian
[12] = tested on: SF-295 CNS
[13] = tested on: MALME-3M melanoma
[14] = tested on: A498 renal
[15] = tested on: MDA-MB-435
[16] = tested on: U251 CNS
[17] = tested on: OVCAR-8 ovarian
[18] = tested on: SK-OV-3 ovarian
[19] = tested on: MDA-MB-231 breast
[20] = tested on: SN12C renal
[21] = tested on: MDA-MB-468 breast
[22] = tested on: HCC-2998 colon
[23] = tested on: CAKI-1 renal
[24] = tested on: CCRF-CEM leukemia
[25] = tested on: COLO 205 colon
[26] = tested on: RPMI-8226 leukemia
[27] = tested on: UO-31 renal
[28] = tested on: SK-MEL-5 melanoma
[29] = tested on: NCI/ADR-RES ovarian
[30] = tested on: A549 NSCLC
[31] = tested on: SNB-19 CNS
[32] = tested on: PC-3 prostate
[33] = tested on: LOX IMVI melanoma
[34] = tested on: RXF 393 renal
[35] = tested on: SF-268 CNS
[36] = tested on: HCT-116 colon
[37] = tested on: EKVX NSCLC
[38] = tested on: MOLT-4 leukemia
[39] = tested on: HOP-92 NSCLC
[40] = tested on: IGROV1 ovarian
[41] = tested on: OVCAR-4 ovarian
[42] = tested on: TK-10 renal
[43] = tested on: OVCAR-5 ovarian
[44] = tested on: UACC-62 melanoma
[45] = tested on: M14 melanoma
[46] = tested on: SNB-75 CNS
[47] = tested on: NCI-H460 lung
[48] = tested on: ACHN renal
[49] = tested on: KM12 colon
[50] = tested on: SR leukemia
[51] = tested on: NCI-H522 lung
[52] = tested on: HS 578T breast
[53] = tested on: T-47D breast
[54] = tested on: UACC-257 melanoma
[55] = tested on: HT29 colon
[56] = tested on: HOP-62 NSCLC
[57] = tested on: DU-145 prostate
[58] = tested on: SW-620 colon
[59] = tested on: SF-539 CNS

SMILES: CCCCCc1ccc(S(=O)(=O)N(C(C)=O)c2cc(-c3csc(N(C)C(C)=O)n3)ccc2N2CCN(C)CC2)cc1
- GI50 [1]: 1.57 µM
- TGI [1]: 6.24 µM
- GI50 [2]: 8.89 µM
- TGI [2]: 17.9 µM
- GI50 [3]: 2.22 µM
- TGI [3]: 8.7 µM
- GI50 [4]: 10.2 µM
- TGI [4]: 19 µM
- GI50 [5]: 10.6 µM
- TGI [5]: 24.1 µM
- GI50 [6]: 2.13 µM
- TGI [6]: 8.02 µM
- GI50 [7]: 8.92 µM
- TGI [7]: 17.3 µM
- GI50 [8]: 4.46 µM
- TGI [8]: 13.5 µM
- GI50 [9]: 1.53 µM
- TGI [9]: 59.3 µM
- GI50 [10]: 7.98 µM
- TGI [10]: 15.6 µM
- GI50 [11]: 6.4 µM
- TGI [11]: 15.1 µM
- GI50 [12]: 2.56 µM
- TGI [12]: 10.2 µM
- GI50 [13]: 7.61 µM
- TGI [13]: 15.3 µM
- GI50 [14]: 8.43 µM
- TGI [14]: 16.2 µM
- GI50 [15]: 2.97 µM
- TGI [15]: 11.4 µM
- GI50 [16]: 7.12 µM
- TGI [16]: 14.7 µM
- GI50 [17]: 9.42 µM
- TGI [17]: 19.5 µM
- GI50 [18]: 9.9 µM
- TGI [18]: 18.1 µM
- GI50 [19]: 4.01 µM
- TGI [19]: 11.8 µM
- GI50 [20]: 7.7 µM
- TGI [20]: 16.2 µM
- GI50 [21]: 2.99 µM
- TGI [21]: 11.9 µM
- GI50 [22]: 6 µM
- TGI [22]: 13.2 µM
- GI50 [23]: 6.19 µM
- TGI [23]: 13.6 µM
- GI50 [24]: 3.63 µM
- TGI [24]: 13.7 µM
- GI50 [25]: 6.54 µM
- TGI [25]: 15.5 µM
- GI50 [26]: 4.61 µM
- TGI [26]: 19.1 µM
- GI50 [27]: 7.22 µM
- TGI [27]: 14.6 µM
- GI50 [28]: 7.04 µM
- TGI [28]: 14.4 µM
- GI50 [29]: 8.01 µM
- TGI [29]: 17.3 µM
- GI50 [30]: 6.37 µM
- TGI [30]: 13.8 µM
- GI50 [31]: 8.81 µM
- TGI [31]: 16.6 µM
- GI50 [32]: 6.48 µM
- TGI [32]: 16.3 µM
- GI50 [33]: 1.01 µM
- TGI [33]: 1.9 µM
- GI50 [34]: 3.99 µM
- TGI [34]: 13.3 µM
- GI50 [35]: 7.35 µM
- TGI [35]: 18 µM
- GI50 [36]: 2.17 µM
- TGI [36]: 8.36 µM
- GI50 [37]: 7.7 µM
- TGI [37]: 15.8 µM
- GI50 [38]: 2.31 µM
- TGI [38]: 11.1 µM
- GI50 [39]: 5.97 µM
- TGI [39]: 16 µM
- GI50 [40]: 9.04 µM
- TGI [40]: 16.9 µM
- GI50 [41]: 9.87 µM
- TGI [41]: 23.6 µM
- GI50 [42]: 9.62 µM
- TGI [42]: 17.9 µM
- GI50 [43]: 8.44 µM
- TGI [43]: 16.2 µM
- GI50 [44]: 9.44 µM
- TGI [44]: 17.4 µM
- GI50 [45]: 3.25 µM
- TGI [45]: 12.2 µM
- GI50 [46]: 6.47 µM
- TGI [46]: 14.2 µM
- GI50 [47]: 1.7 µM
- TGI [47]: 6.22 µM
- GI50 [48]: 8.86 µM
- TGI [48]: 16.7 µM
- GI50 [49]: 7.83 µM
- TGI [49]: 17.2 µM
- GI50 [50]: 1.23 µM
- TGI [50]: 4.07 µM
- GI50 [51]: 8.69 µM
- TGI [51]: 17.3 µM
- GI50 [52]: 8.77 µM
- TGI [52]: 25.6 µM
- GI50 [53]: 7.66 µM
- TGI [53]: 18 µM
- GI50 [54]: 7.51 µM
- TGI [54]: 15.5 µM
- GI50 [55]: 2.11 µM
- TGI [55]: 7.89 µM
- GI50 [56]: 8.71 µM
- TGI [56]: 17 µM
- GI50 [57]: 7.52 µM
- TGI [57]: 15.4 µM
- GI50 [58]: 1.51 µM
- TGI [58]: 5.99 µM
- GI50 [59]: 7.18 µM
- TGI [59]: 14.5 µM
